Legend:
[1] = system: TNNT2+ iPSC-derived cardiomyocytes; test: Cell cycle analysis by flow cytometry (Hoechst 33342 / pyronin Y) of TNNT2+ cardiomyocytes; assay type: cell-based, human
Experimental: (§1) To prepare for differentiation, iPSCs were plated at a density between 20,000 to 80,000 cells (depending on the cell line) per well of a 12-well plate at four days prior to onset of differentiation. Cells were differentiated according to the protocol previously described by Lian et al. with some modifications (FIG. 1A) (1). Basal media was changed from StemFlex to RPMI/B27 on day 0 of differentiation. The GSK3 inhibitor, CHIR99021 (6 μM), was added for 48 hours from day 0 to day 2 of differentiation when cells were approximately 70-80% confluent. The Wnt antagonist IWP4 (5 μM) was added from days 2 to 4 of differentiation. Insulin (10 μg/ml) was added to the media starting on day 7 of differentiation, and media was changed every 2-3 days. In general, higher purity (TNNT2+) cardiomyocytes were observed when beating initiated prior to day 10 of differentiation, therefore only batches with onset of beating between days 7-10 of differentiation were included in this study. Beating cardiomyocytes were treated with Torin1 (200 nM, unless otherwise noted) or vehicle (0.02% dimethylsulfoxide (DMSO)) beginning at ˜2 days after onset of beating for 7 days (media changed with fresh Torin1 or DMSO every 2-3 days), unless otherwise noted. After Torin1 treatment, media was switched back to RPMI/B27/insulin and maintained with media change every 2-3 days until endpoint assay. In a few assays, fatty acids were added in the form of chemically defined lipids (Gibco) diluted 1:1000 simultaneous with Torin1 treatment. In some other assays, fetal bovine serum (10% FBS) was added to cells after completion of Torin treatment for 2-4 days.
Cells were dissociated and 5×10^5 to 1×10^6 cells were used per condition. For cell cycle analysis, 5×10^5 cells per condition were fixed in 70% cold ethanol for at least 2 hours to overnight at −20 degrees C. Cells were stained first with AlexaFluor 647-TNNT2 in Permeabilization Buffer (Thermo) then with Hoechst 33342 (2 μg/ml) and pyronin Y (4 μg/ml) for 20 minutes to distinguish between cells in G0, G1, and S-G2-M phases. For other stains, cells were fixed in eBioscience Intracellular Fixation buffer for 30 minutes followed washing twice in eBioscience Permeabilization Buffer and stained with the appropriate primary antibody (Table 2) in eBioscience FACS Staining buffer for 30-60 minutes. If a secondary antibody was used, cells were incubated with the appropriate secondary antibody (Table 2) for 30-60 minutes. The geometric mean fluorescence intensity (MFI) was quantified for TNNT2 and Kir2.1 antibodies. Data were acquired via a BD LSRII instrument and analyzed using FlowJo software.

[2] = system: iPSC-derived cardiomyocytes; test: qPCR mRNA expression in iPSC-derived cardiomyocytes; assay type: cell-based, human
Experimental: as §1
RNA was extracted from cells using RiboZol (VWR) followed by the E.Z.N.A. Total RNA I kit (Omega) then reverse transcribed to cDNA with the High Capacity cDNA Reverse Transcription kit (Thermo Fisher Scientific) according to the manufacturer's instructions. Quantitative PCR (qPCR) was performed using the iTaq Universal SYBR Green Supermix (Bio-Rad) and the primer pairs listed in Table 1 with a Bio-Rad CFX384 Real-Time thermal cycler. TATA-binding protein (TBP) was used as the housekeeping gene.

[3] = Torin1 10-200 nM, 7 days, BJRiPS-CMs, FIG. 1E

## CCC(=O)N1CCN(c2ccc(-n3c(=O)ccc4cnc5ccc(-c6cnc7ccccc7c6)cc5c43)cc2C(F)(F)F)CC1 [Torin1]
[1]; 10% FBS 48 hours starting two days after completion of Torin1, FIG. 1I
  percentage of Torin1-treated cells in G0 after 10% FBS: significant decrease
[1]; Torin1 200 nM 1 week, vehicle control 24%, FIG. 1G
  quiescent (G0) cells: 48%
[1]; Torin1 200 nM 1 week, vehicle control 47%, FIG. 1G
  G1 cells: 27%
[1]; nutlin-3a 10 μM 24 hours, Torin1 200 nM 7 days, or both, BJRiPS-CMs, FIG. 6B
  percentage of quiescent (G0) TNNT2+ cardiomyocytes versus control: increased the percentage of quiescent (G0) TNNT2+ cardiomyocytes
[1]; nutlin-3a 10 μM 24 hours, Torin1 200 nM 7 days, or both, FIG. 6B
  percentage of TNNT2+ cardiomyocytes in G1 phase versus control: decreased the percentage of TNNT2+ cardiomyocytes in G1 phase
[2]; 200 nM Torin1 about two days after onset of beating, BJRiPS, FIGS. 18B-18D
  mRNA expression of TNNI3, CACNA1c and SERCA2a: robust increase in mRNA expression
[2]; FIG. 3F
  fatty acid transport protein 6 (FATP6) mRNA: increase in mRNA expression
[2]; FIG. 4A
  HCN4 mRNA: non-significant trend of increased HCN4
[2]; FIGS. 13A-13B
  selected mitochondrial genes (qPCR) or proteins (western): Significant changes in selected mitochondrial genes (FIG. 13A) or proteins (FIG. 13B) were not observed
[2]; Torin1 200 nM from day 9, BJRiPS, FIG. 25B
  E2F4 mRNA: increased mRNA expression of the inhibitory E2F member, E2F4
[2]; Torin1 200 nM from day 9, FIG. 25C
  RBL2 (p130) mRNA: increased mRNA expression of RBL2
[2]; Torin1 200 nM from day 9, FIG. 25D
  MDM2 mRNA: decreased mRNA expression of the E2 ubiquitin-protein ligase, MDM2
[2]; Torin1 10, 50, 200 nM, 7 days, BJRiPS-CMs, FIG. 2A
  MYH6, MYH7, TNNT2 mRNA: trended toward increased expression
[2]; Torin1 10, 50, 200 nM, 7 days, FIG. 3F
  PPARGC1a mRNA expression: dose-dependent increase
[2]; [3]
  cyclin C1 and E2F1 proliferative markers (qPCR): significant decrease
  expression of quiescence markers including p16 and p130 (qPCR): non-significant trends toward increased expression
[2]; Torin1 10 or 200 nM, 7 days, FIG. 4A
  KCNJ2, CACNA1c, RYR2, ATP2A2 (SERCA2A), SCN5A mRNA: significant dose-dependent increase
[2]; discussion of Example 1
  mRNA expression of p21: significantly decreased mRNA expression
[2]; dose-dependent, Torin1 10, 50, 200 nM, 7 days, FIG. 2A
  TNNI3 mRNA expression: significantly increased
[2]; immediately after Torin1 treatment, transient increase at ~5 days, FIG. 25A
  E2F1 mRNA: trend toward decreased mRNA expression of the stimulatory E2F member, E2F1
[2]; initiation about 2 days after onset of beating, BJRiPS, FIG. 20A
  TNNI3 expression by time of Torin1 initiation (qPCR): trend toward higher TNNI3 expression
[2]; trend, Torin1 200 nM from day 9, FIG. 25E
  CDKN1a (p21) mRNA: decreased mRNA expression of the cyclin inhibitor CDKN1a (p21)
[2]; trend, Torin1 200 nM from day 9, FIG. 25F
  CDK2 mRNA: increased mRNA expression of the cyclin-dependent kinase, CDK2

Source: patent US11850266B2, “Cardiomyocytes and compositions and methods for producing the same” (President and Fellows of Harvard College, priority 2019, dated 2023)
